Measurements: patent US11000515B2, “Compounds that interact with the Ras superfamily for the treatment of cancers, inflammatory diseases, rasopathies, and fibrotic disease” (Shy Therapeutics LLC, priority 2017, dated 2021)
Values belong to the molecule of their own block, whether it stands above or below them.

What was measured:
[1] = tested on: MIA-PACA2 pancreatic cancer cell lines; experiment: Cell proliferation assay, MIA-PACA2 (CellTiter 96 AQueous One, 6 days); format: cell-based; details: Homo sapiens, MIA PaCa-2, 144 h
Description: (§1) Cell lines: Tumor-derived pancreatic cancer cell lines MIA-PACA2 were purchased from ATCC and grown in complete DMEM-High Glucose medium supplemented with penicillin (100 U/mL), streptomycin (100 μg/mL), and 10% heat-inactivated FBS at 37° C. in a humidified incubator with 5% CO2.
Method: Cells are plated at 1000 cells/well density in 96-wells plate, starved ON, and the next day tested small molecules are added to the cells in the final concentration of 30 μM with 0.3% DMSO 3 hours prior to 10% FBS addition. After serum addition cells are incubated for 6 days at 37° C. in a humidified incubator with 5% CO2. For IC50 value determination, serial dilutions of compounds were added to cells under the same conditions.
Assay: At the end of the incubation period, cell cultures are tested using the CellTiter 96® AQueous One Solution Cell Proliferation Assay kit (Promega Corporation, Madison, Wis.) according to the manufacturer specifications. Briefly, assay is performed by adding 20 μl of the CellTiter 96 Aqueous One Solution Reagent directly to culture wells, followed by for 1-4 hours incubation at 37° C. in a humidified incubator with 5% CO2. At the end of incubation time, absorbance at 492 nm is recorded with the 96-well plate reader Eppendorf AF2200, and degree of small molecule-dependent proliferation inhibition is calculated from raw data assuming No Serum cells value as 100%.

Rac-1 = Rac-1 (Homo sapiens (Human), UniProt P63000); experiment: Rac and Rho inhibition assay (labeled GTP); format: binding; details: read-out: Rac-1 % Inh.
Rho-A = Rho-A (Homo sapiens (Human), UniProt P61586); experiment: Rac and Rho inhibition assay (labeled GTP); format: binding; details: read-out: Rho-A % Inh.
Sequence of Rho-A (P61586 whole entry): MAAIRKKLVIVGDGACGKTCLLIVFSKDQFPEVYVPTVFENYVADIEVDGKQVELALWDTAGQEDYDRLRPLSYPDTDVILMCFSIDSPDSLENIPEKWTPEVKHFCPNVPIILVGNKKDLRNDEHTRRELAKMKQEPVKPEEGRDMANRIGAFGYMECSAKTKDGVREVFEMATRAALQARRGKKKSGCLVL

[2] = tested on: MIA-PACA2 pancreatic cancer cell lines; experiment: Cell proliferation assay, MIA-PACA2, alternate assay conditions (DAPI staining, 4 days); format: cell-based; details: Homo sapiens; for inhibition at 10 µM: MIA PaCa-2, 96 h, tested at 10 μM (*), 4 days, alternate conditions
Description: as §1
Method: Cells are plated at 4000 cells/well density in 96-wells plate. The next day tested small molecules are added to the cells in the final concentration of 10 μM in the presence of 0.3% DMSO and 10% FBS. After small molecules addition, cells are incubated for 4 days at 37° C. in a humidified incubator with 5% CO2. For IC50 value determination, serial dilutions of compounds were added to cells under the same conditions.
Assay: At the end of the incubation period, cell cultures are fixed with a 50-50 mixture (v/v) acetone-methanol for 10 minutes at −20° C., followed by rehydration in PBS for 10 minutes at room temperature. After rehydration, cells are stained with DAPI (1 μg/ml) in PBS for 10 minutes at room temperature, followed by 3 washes with PBS. After staining, DAPI fluorescence is recorded (358 nm excitation/461 nm emission) with the 96-well plate reader Molecular Devices Spectramax M3; degree of small mole-cule-dependent proliferation inhibition is calculated from raw data assuming No Serum cells value as 100%.

[3] = tested on: MAPK phosphorylation in the PANC-1 pancreatic cancer cell line; experiment: MAPK cell-based phosphorylation assay (cell-direct ELISA, EGF-stimulated PANC-1); details: Homo sapiens; for inhibition at 10 µM: tested at 10 μM (*), PANC-1; for inhibition at 30 µM: PANC-1, 6 hours incubation, EGF stimulation
Description: Cell lines: Tumor-derived pancreatic cancer cell lines PANC-1 were purchased from ATCC and were maintained according to ATCC recommendation.
Method: Cells were plated at 7500 cells/well density in 96-wells plate, starved over night, and the small molecules to be tested were added to the cells in the final concentration of 30 μM with 0.3% DMSO for 6 hours incubation at 37° C. For IC50 value determination, serial dilutions of compounds were added to cells under the same conditions. Next, cells were stimulated with 1.5 ng/ml EGF for 15 min. followed by cell fixation with 4% Formaldehyde in PBS at RT for 20 min. Phosphorylation level of MAPK was determined by Cell-direct ELISA.
Cell-direct ELISA: For each well, cells were permeabilized with PBS-Triton 0.1%, quenched with H2O2 0.6% in PBS-Triton 0.1%, and probed with anti-phospho-MAPK antibodies (R&D Systems) followed by HRP-conjugated secondary antibody (Jackson Immunoresearch, West Grove, Pa.). Next, a solution 50 μM of the fluorescent substrate AmpliFlu Red (Sigma) was added and incubated at RT for 20 min. At the end of the incubation time, fluorescence was measured at 595 nm on a microplate reader (AF2200; Eppendorf, Inc., Hamburg, Germany).

[4] = biological target: KRas G12D/Q61H double mutant (Homo sapiens (Human), UniProt P01116, G12D/Q61H); experiment: Ras GTP binding domain inhibition assay (labeled GTP); details: at 20 μM; read-out: KRas Gl2D Q61H % Inh.
Sequence of KRas G12D/Q61H double mutant (P01116-2 other isoform, or with tags, fused parts or gaps G12D/Q61H): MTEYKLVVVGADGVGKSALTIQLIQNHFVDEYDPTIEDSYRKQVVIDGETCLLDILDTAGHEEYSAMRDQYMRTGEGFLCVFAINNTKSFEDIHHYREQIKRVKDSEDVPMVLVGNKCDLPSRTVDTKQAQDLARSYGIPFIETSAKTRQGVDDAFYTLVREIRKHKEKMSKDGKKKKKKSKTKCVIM
Description: Buffer-I: • 50 mM Tris, pH 7.5 • 150 mM NaCl (optional) • 1 mM MgCl2 • 1 mM DTT. • KRas G12D mutant protein was expressed as a His-tagged protein. Purified His-KRas G12D protein was diluted in buffer-I to a final concentration of 3-10 μg/ml. • 200 μl of the diluted His-KRas G12D protein was added to a nickel coated 96 well plate and incubated overnight at 4° C. • The next day, wells were washed 3× in 200 μl of Buffer-I. • Then 200 μl of Buffer-I were added to each well in the presence of 1% DMSO. • Tested compounds were added to the protein-coated wells at a concentration of 20 μM, and incubated for 3 hours at room temperature. While performing IC50 measurements a serial dilution of all tested concentrations was prepared.
Then 22 μl of Cy3-GTP or Cy5-GTP was added to each well. The labeled GTP was incubated for 45 min. at room temperature. • Following GTP incubation, wells were washed 3× in Buffer-I, and 200 μl of Buffer-I were added to each well. • Following washes, the amount of bound labeled-GTP was measured with an Eppendorf AF2200 plate reader.
By substituting KRas G12D mutant protein with KRas G12C mutant, KRas wild type, KRas Q61H mutant, KRas G12D/Q61H double mutant or KRas G12C/Q61H double mutant under the assay conditions described above, KRas G12C mutant KRas wild type, KRas Q61H mutant, KRas G12D/Q61H double mutant and KRas G12C/Q61H double mutant inhibition, respectively, were each determined.

SMILES: NC(=O)C1CCN(c2nc(-c3ccccn3)nc3scc(-c4ccccc4)c23)CC1
inhibition at 30 µM [1]: 76 to 100%

SMILES: CN(CCCc1n[nH]c(N)c1C#N)c1nc(-c2ccccn2)nc2sc(-c3ccccc3)cc12
inhibition at 30 µM [1]: 76 to 100%

SMILES: O=C(Nc1nnc(-c2ccccn2)[nH]1)c1ccc(Cc2ccccc2)nc1
inhibition at 30 µM [1]: 51 to 75%

inhibition at 20 µM (Rac-1): 51 to 75% | inhibition at 20 µM (Rho-A): 76 to 100%
SMILES: COc1ccc(COC[C@H]2O[C@@H](c3csc4c(=O)[nH]c(-c5ccccn5)nc34)[C@H](O)[C@@H]2O)cc1

IC50 ([2]; MIA PaCa-2, same assay as % inhibition: alternate conditions): 501 to 1000 nM
SMILES: COc1ccc(-c2c(-c3ccccc3)sc3c(O)nc(-c4cccn4C)nc23)cn1
inhibition at 10 µM [2]: 76 to 100%

SMILES: Oc1nc(-c2ccccn2)nc2c(-c3ccccn3)csc12
inhibition at 10 µM [3]: 76 to 100%

SMILES: Oc1cccc(-c2csc3c(O)nc(-c4ccccn4)nc23)n1
inhibition at 10 µM [2]: 76 to 100%

SMILES: Cc1nc(-c2ccccn2)nc(O)c1CCC(=O)Nc1ccc(C(C)C)cc1
inhibition at 30 µM [3]: 1 to 25%

SMILES: COc1ccc(CCC(=O)Nc2nc(-c3ccccn3)nc3sccc23)cn1
inhibition at 10 µM [3]: 76 to 100%

SMILES: O=C(CCn1ccnc1)Nc1nc(-c2ccccn2)nc2sccc12
inhibition at 30 µM [1]: 76 to 100%

SMILES: N#Cc1ccc(CC(=O)Nc2ccnc(-c3ccccn3)n2)cc1
inhibition at 30 µM [3]: 1 to 25%

inhibition at 20 µM [4]: 25 to 50% | inhibition at 20 µM (Rac-1): 51 to 75% | inhibition at 20 µM (Rho-A): 51 to 75%
SMILES: COC1CN=C(CNC(=O)c2cc3nc(-c4ccccn4)nc(O)c3s2)NC1=O (stereo not shown)

SMILES: Cn1ccnc1-c1nc(O)c2scc(-c3cccc(OC(F)(F)F)c3)c2n1
inhibition at 10 µM [3]: 25 to 50%

inhibition at 20 µM (Rac-1): 51 to 75% | inhibition at 20 µM (Rho-A): 25 to 50%
SMILES: COc1ccnc(-c2nc(O)c3c(C#N)csc3n2)c1

SMILES: COc1cnc(CN)[nH]c1=O
inhibition at 30 µM [1]: 51 to 75%

SMILES: COOCCCCNC(=O)c1csc2nc(-c3ccccn3)nc(N3CCOCC3)c12
inhibition at 30 µM [3]: 1 to 25%

SMILES: Cc1cccc(-c2c(-c3ccccc3)sc3c(O)nc(-c4nccn4C)nc23)c1
inhibition at 10 µM [2]: 25 to 50%

SMILES: COCC(C)Nc1nc(-c2ncccn2)nc2sc(-c3ccncc3)c(-c3ccccc3)c12 (stereo not shown)
inhibition at 10 µM [2]: 51 to 75%

SMILES: COC(=O)c1cc(NCc2nc(CC(C)C)no2)ccc1Cl
inhibition at 30 µM [3]: 1 to 25%

SMILES: OCCn1ncc2c1CCCC2Nc1nc(-c2ccccn2)nc2scc(-c3ccccc3)c12 (stereo not shown)
inhibition at 30 µM [1]: 76 to 100%
